Results reported in a melting point compilation (Tetko et al.; mined from patent text by program, amines drawn as free bases though some values may be those of a salt).

Row | SMILES | melting point
1 | Cc1c(C(=O)c2cnn(C(C)(C)C)c2O)ccc(S(C)(=O)=O)c1I | 171 to 172 °C
2 | CCOCc1nc2cnc3ccccc3c2n1CCC(C)C | 64 to 65 °C
3 | O=C(O)CCc1cc(Br)c(OC(=O)c2c3ccccc3nc3ccccc23)c(Br)c1 | 240 to 242 °C
4 | CC(C)Oc1ccc(CCCCC2SC(=O)NC2=O)cc1 (stereo not drawn) | 72 to 73 °C
5 | CCc1cccc(C)c1CNc1cc(C(=O)N(C)C)cn2c(C)nnc12 | 201 °C
6 | O=C1N(c2cc(Cl)cc(Cl)c2)C(=O)C2(Cc3ccc(Br)cc3)C[C@@H](c3ccccc3)CN12 (stereo partly drawn) | 124 °C
7 | COc1ccc(-c2cccc(C(=O)NCCC#N)c2)c2cc(Cc3cccc(C(F)(F)F)c3)oc12 | 126 to 127 °C
8 | COC(=O)[C@@H](CCSC)NC(=O)C[C@H]1O[C@H](c2cccc(OC)c2OC)c2cc(Cl)ccc2N(CC(C)(C)CO)C1=O | 142 to 143 °C
9 | Nc1nc(-c2ccccc2)c(CCBr)c2ncnn12 | 193 to 194 °C
10 | Oc1cncc2sccc12 | 206 °C
11 | O=C1CCN(Cc2ccccc2)CC1C1c2ccccc2C=Cc2ccccc21 (stereo not drawn) | 167 to 169 °C
12 | O=[N+]([O-])c1cc2c(Cl)ncnc2cc1F | 116 to 118 °C
13 | O=Cc1ccc(OCc2ccccc2)c(OC2CCCC2)c1 | 55 to 56 °C
14 | O=c1[nH]nccc1-c1ccccc1OC(F)(F)C(F)F | 178 °C
15 | COc1cc(OCC(CO)CO)c(C=CC(=O)c2ccc(C(=O)O)cc2)cc1-c1cccs1 | 219 to 220 °C
16 | COc1ccccc1Oc1c(NS(=O)(=O)c2cccs2)nc(-c2ncccn2)nc1OCCOc1ncc(Br)cn1 | > 300 °C
17 | CCCCCC(=O)c1ccc(C(=O)Nc2ccc3cc(CN4CCCC4)cnc3c2C)cc1 | 175 °C
18 | COc1ccc(C(NC(=O)CC2CCCC2)C2=CCc3ccccc32)c(C(=O)NS(=O)(=O)c2ccccc2C)c1 (stereo not drawn) | 227 to 228 °C
19 | N#Cc1ccc(C(=C2CCCCC2)c2nc[nH]n2)cc1 | 92 to 93 °C
20 | C#CCOc1ccc(-c2nc3cnncc3[nH]2)c(OC)c1 | 224 °C
21 | CCc1cc(O)c(C(=O)CCc2ccc3occc3c2)c(OC2OC(CO)C(O)C(O)C2O)c1 (stereo not drawn) | 146 to 148 °C
22 | CC(C)(C)OC(=O)N(C(=O)OC(C)(C)C)C(=O)c1cc2cc(Br)ccc2o1 | 138 to 139 °C

Row | SMILES | melting point
23 | O=Cc1cccn1-c1ncccc1[N+](=O)[O-] | 122 to 125 °C
24 | CC(=O)Nc1cccc2cc(S(=O)(=O)Nc3onc(C)c3C)ccc12 | 210 to 212 °C
25 | COc1ccccc1N1CCN(CCCNc2ccc(F)cc2)CC1 | 79 to 80 °C
26 | CCCN1CCN(c2cccc3c2C[C@H](NC(C)=O)CC3)CC1 | 139 to 140 °C
27 | Cc1nc(NC(=O)Nc2ccc(F)cc2)sc1C(=O)NCc1ccccc1 | > 300 °C
28 | N#CC1(Cc2nnn[nH]2)C2CCCC1CCC2 (stereo not drawn) | 189 to 191 °C
29 | COc1ccc(OC)c(S(=O)(=O)Nc2ccccc2/C=C/c2ccncc2)c1 | 193 to 195 °C
30 | Cc1[nH]cnc1CN1CCc2c(c3cccc(OCc4ccccc4)c3n2COCc2ccccc2)C1=O | 170 to 172 °C
31 | COCCNc1c([N+](=O)[O-])cnc2ccccc12 | 113 to 115 °C
32 | CC(=O)Nc1c(C(=O)c2cccc(S(N)(=O)=O)c2)[nH]c2cc(Cl)ccc12 | 250 to 251 °C
33 | Cc1cc(OC(F)F)cc(NC(=O)NS(=O)(=O)c2ccccc2Cl)n1 | 169 to 170 °C
34 | CC(C)(CC1CCCC1)NC(=O)CN1C(=O)c2ccccc2C1=O | 159 to 160 °C
35 | CC(C)(C)OC(=O)NCCc1c[nH]c2ccc(Oc3ccccc3)c(Cl)c12 | 163 to 166 °C
36 | Cc1ccc2[nH]c(=O)sc2c1 | 70 to 71 °C
37 | CN1CCN(CCc2ccc(Nc3ncc4c(n3)-c3ccccc3C(c3ccccc3C(F)(F)F)C4)cc2)CC1 (stereo not drawn) | 157 to 158 °C
38 | O=Cc1[nH]cc2c1CN=C(c1ccccc1Cl)c1cc(Cl)ccc1-2 | 270 to 274 °C
39 | O=C(c1ccc(OCCN2CCCC2)cc1)c1c(-c2ccc(O)cc2)sc2cc(O)ccc12 | 146 to 147 °C
40 | Nc1cc(-c2noc(-c3cnn4ccc(-c5ccc(C(F)(F)F)cc5)nc34)n2)ccn1 | 250 °C
41 | Cn1cnc(COc2nc3c(cc2C(C)(C)C)nnn3-c2ccccc2F)n1 | 127 to 129 °C
42 | C=CCn1c(=O)c(C(=O)OCC)c(N)c2ccccc21 | 132 to 134 °C
43 | COCOc1ccc(Nc2ncccc2NS(=O)(=O)c2ccc(OC)cc2)cc1 | 118 to 119 °C
44 | CN(C)CCCC1(O)c2ccccc2C=Cn2cc(C#N)cc21 (stereo not drawn) | 123 to 126 °C

Row | SMILES | melting point
45 | CN1C(=O)[C@H](NC(=O)CC2CCCCC2)N=C(c2ccccc2)c2ccccc21 | 144 to 146 °C
46 | NC(=O)c1ncn2c(-c3cccnc3)ccnc12 | > 260 °C
47 | CCOC(=O)CC(c1ccccc1)C(C#N)c1ccccc1 (stereo not drawn) | 60.5 to 63 °C
48 | Cn1nc(-c2cnc3[nH]cc(C(=O)NC4CCCCC4)c3n2)c2ccc(Cl)cc21 | 321 to 323 °C
49 | CN(C)CCCOc1ccc(C(=O)NN)cn1 | 81 to 83 °C
50 | COC(=O)c1cncc(OCc2nc(-c3ccccc3)oc2C)c1 | 119 to 120 °C
51 | COc1ccc(C=O)cc1CCl | 55 to 57 °C
52 | C[C@@H]1CCCN1CCCOc1ccc(-c2ccc(=O)[nH]n2)cn1 | 178 to 181 °C
53 | COCOc1nn(-c2ccccc2)cc1C=O | 106 to 107 °C
54 | Oc1cccc(O)c1Br | 86 to 88 °C
55 | O=C(c1ccc([N+](=O)[O-])cc1Cl)N1CCCCc2ncccc21 | 143 to 145 °C
56 | CC(C)(C)c1cc2c(c(C(C)(C)C)c1)O[Si](C)(C)Oc1c-2cc(C(C)(C)C)cc1C(C)(C)C | 170 to 176 °C
57 | CCNc1c(C#N)cnn1-c1ccc(Cl)c(Cl)c1Cl | 145 °C
58 | COc1cc(C(C#Cc2c(C)nc(N)nc2N)OC)cc(OC)c1OC (stereo not drawn) | 127 to 129 °C
59 | CCOC(=O)N=C(OCC)c1ccccc1Cl | 65 to 66 °C
60 | CC(=O)c1ccccc1N(C)S(C)(=O)=O | 98 to 99 °C
61 | O=C1N(Cc2nc3ccccc3s2)c2ccccc2C12COc1cc3c(cc12)OCCO3 (stereo not drawn) | 164 to 166 °C
62 | Cc1c2cccc(-c3cccc(C(=O)NCCO)c3)c2nn1Cc1cccc(C(F)(F)F)c1 | 142 to 143 °C
63 | O=C(Nc1cccnn1)N1CCN(c2nccc(-c3ccccc3F)n2)CC1 | 228 to 229 °C
64 | Cc1cc(N)cnc1CCCC#N | 103 to 105 °C

Results, then the molecule that gave them:

Row | melting point | SMILES
65 | 122 to 127 °C | C=CCN(c1ccccc1)c1cc2c(cc1N(CC=C)c1ccccc1)C(=O)NC2=O
66 | 180 to 184 °C | CCC1CCCCN1C(=O)C=Cc1c(-c2cccc(N(C)C)c2)nn2ccccc12 (stereo not drawn)
67 | 221 to 223 °C | COc1cc2c(Nc3ccc(Sc4nccn4C)c(Cl)c3)c(C#N)cnc2cc1N1CCC(N2CCCCC2)CC1
68 | 214 to 215 °C | O=c1cccc(-c2nc(=O)c3ccccc3s2)[nH]1
69 | 179 to 181 °C | CN(C(CCn1c(=O)cc(-c2ccccc2)[nH]c1=O)C(=O)NO)S(=O)(=O)c1ccc(Oc2ccccc2)cc1 (stereo not drawn)
70 | 128 to 129 °C | CC(C)n1cnc2c(Nc3cccc(Cl)c3)nc(Cl)nc21
71 | 212 to 214 °C | S=C1N[C@@H](c2ccccc2)[C@H](c2ccccc2)N1 (relative stereo)
72 | 170 to 172 °C | CN1N=C(C2CCCCC2)CC1=O
73 | 89 to 92 °C | CCCCN(CCCC)CCCNC(=O)c1ccc2oc3ccc(C(=O)NCCCN(CCCC)CCCC)cc3c(=O)c2c1
74 | 66 to 68 °C | COC(=O)Cc1ccc(CNC(=O)C2Cc3ccccc3N2S(=O)(=O)c2ccc(-c3cccc(C)c3)cc2)cc1 (stereo not drawn)
75 | 93 to 94 °C | CCOC(=O)c1cc2ccccc2n1CC1CC(=O)N(Cc2ccccc2)C1 (stereo not drawn)
76 | 217 °C | CC(=O)Nc1nc(C)c(S(=O)(=O)NC(CO)CO)s1
77 | 206 to 207 °C | Nc1cc(=O)n(-c2c(Cl)cc(C(F)(F)F)cc2Cl)[nH]1
78 | 226 °C | Cc1c(C(=O)Nc2ccc(N3CCC(N4CCNCC4)CC3)c(C#N)c2)cnn1-c1ccc(Cl)cc1
79 | 150 to 152 °C | CS(=O)(=O)c1ccc(-c2cccn2-c2ccc(OC(F)(F)F)cc2)cc1
80 | 241 to 245 °C | COc1ccc(Nc2c([N+](=O)[O-])cc([N+](=O)[O-])c(Cl)c2C(=O)O)cc1
81 | 67 to 68 °C | CC(=O)CC1(C)C=NC=CN1c1ccccc1 (stereo not drawn)

Row | melting point | SMILES
82 | 160 to 162 °C | CN1CCC(c2c[nH]c3ccc(OS(=O)(=O)c4ccc(F)c(F)c4F)cc23)CC1
83 | 239 to 240 °C | CC1(C)CC(=O)C2=C(C1)NC1=C(C(=O)CC(C)(C)C1)C2c1ccc([N+](=O)[O-])c(OCc2ccccc2)c1
84 | 92.6 to 99 °C | COc1nc2cc(Cl)c(Cl)cc2nc1N1CCN(C)CC1
85 | 266 to 268 °C | CC1Oc2ccc(CN3CCN(c4ccc(C#N)cc4)CC3)cc2NC1=O (stereo not drawn)
86 | 168 °C | CCSc1nc(=O)n(C(=O)Nc2cccc(Cl)c2)s1
87 | 108 °C | CCCCc1c(Cc2ccc(-c3ccccc3-c3nnn[nH]3)cc2)c(C(=O)O)nn1CCCC
88 | 116 to 119 °C | O=C(O)Cc1ccc(OCCc2ccccc2)c(OCc2ccccc2)c1
89 | 169 to 171 °C | COC(=O)/C=C/Cn1c(=O)c2cc(C(=O)NCc3ccc(OC)cc3)sc2n(C)c1=O
90 | 158 to 160 °C | CCN(CC)Cc1cc(Nc2ccnc3cc(Cl)ccc23)c2ccccc2c1O
91 | > 300 °C | FC(F)c1ccc2c(c1)C(Cc1ccncc1)(Cc1ccncc1)c1ccccc1-2
92 | > 250 °C | NC1=NC2(O)c3cc([N+](=O)[O-])ccc3CC2S1 (stereo not drawn)
93 | 100 to 111 °C | CC(C)(C)NS(=O)(=O)c1cccc2c1C(O)CCC2 (stereo not drawn)
94 | 195 to 197 °C | COC(=O)NC1CCN(c2ncc3ncnc(Nc4ccc(F)c(Cl)c4)c3n2)CC1
95 | 202 to 204 °C | COc1cc(OCCCN2CCC(c3n[nH]c4cc(F)ccc34)CC2)ccc1C(C)=O
96 | 106 to 108 °C | c1ccc(-n2c(Cc3ccccn3)nc3ccccc32)cc1
97 | 186 to 187 °C | NS(=O)(=O)c1ccccc1C(=S)N1CCCC1
98 | 82 to 84 °C | C=C(C)COc1ccc2c(=O)c(C)c(-c3ccccc3)oc2c1C(=O)C=Cc1cc(OC)c(OC)c(OC)c1
